Results from patent US10336762B2 (priority 2017, dated 2019).
Read-outs that look alike come from different tables or passages of the source.

How the values were obtained:
[1] = target: IRAK4 enzyme (Homo sapiens (Human), UniProt Q9NWZ3); assay: biochemical; assay type: biochemical; settings: IRAK4 enzyme, 500 μM ATP
[2] = tested on: TNFα; assay: cells; assay type: cell-based, human; settings: LPS-stimulated human monocytes, read-out: EC50 TNF
[3] = Homo sapiens, Monocyte, TNFα content

Chain of IRAK4 enzyme (Q9NWZ3 whole entry): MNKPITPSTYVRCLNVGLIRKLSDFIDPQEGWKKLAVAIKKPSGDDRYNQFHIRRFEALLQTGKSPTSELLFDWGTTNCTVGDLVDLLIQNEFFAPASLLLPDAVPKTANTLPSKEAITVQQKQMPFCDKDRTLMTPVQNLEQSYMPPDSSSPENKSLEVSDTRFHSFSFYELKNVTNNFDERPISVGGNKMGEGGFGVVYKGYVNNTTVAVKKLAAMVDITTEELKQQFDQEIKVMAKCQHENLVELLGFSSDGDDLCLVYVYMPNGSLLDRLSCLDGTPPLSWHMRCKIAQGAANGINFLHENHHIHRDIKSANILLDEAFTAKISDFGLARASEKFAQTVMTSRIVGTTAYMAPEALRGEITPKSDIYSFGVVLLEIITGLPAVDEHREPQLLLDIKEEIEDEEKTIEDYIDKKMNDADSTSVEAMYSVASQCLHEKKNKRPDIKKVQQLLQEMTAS

Structure (SMILES)	IC50 ([1]; TR-FRET) [nM]	EC50 ([2]; TNFα content) [nM]	IC50 ([1]; TR-FRET (HTRF)) [nM]	EC50 [2, 3] [nM]	EC50 ([2]; Homo sapiens, Monocyte, TNFα by TR-FRET) [nM]
CC(C)(O)[C@H](F)CNC(=O)c1cnc(-c2ccc3cc(C#N)cnn23)cc1NC1CC2CCC(C1)N2S(C)(=O)=O (stereo partly drawn) [Example 15, 6-(3-cyanopyrrolo[1,2-b]pyridazin-7-yl)-N-((R)-2-fluoro-3-hydroxy-3-methylbutyl)-4-(((1R,3r,5S)-8-(methylsulfonyl)-8-azabicyclo[3.2.1]octan-3-yl)amino)nicotinamide]	4	302	–	–	–
CC(C)(O)[C@H](F)CNC(=O)c1cnc(-c2ccc3cc(C#N)cnn23)cc1Nc1ccc2oc(=O)[nH]c2c1 [Example 568, (R)-6-(3-cyanopyrrolo[1,2-b]pyridazin-7-yl)-N-(2-fluoro-3-hydroxy-3-methylbutyl)-4-((2-oxo-2,3-dihydrobenzo[d]oxazol-5-yl)amino)nicotinamide]	–	–	< 1	214	–
CC(C)(O)[C@H](F)CNC(=O)c1cnc(-c2ccc3cc(C#N)cnn23)cc1Nc1ccc(-n2ccnn2)cc1 [Example 180, (R)-4-((4-(1H-1,2,3-triazol-1-yl)phenyl)amino)-6-(3-cyanopyrrolo[1,2-b]pyridazin-7-yl)-N-(2-fluoro-3-hydroxy-3-methylbutyl)nicotinamide]	< 1	–	–	34	–
CC(C)Nc1cc(-c2ccc3cc(C#N)cnn23)ncc1C(=O)NCC1CCS(=O)(=O)CC1 [Example 121, 6-(3-cyanopyrrolo[1,2-b]pyridazin-7-yl)-N-((1,1-dioxidotetrahydro-2H-thiopyran-4-yl)methyl)-4-(isopropylamino) nicotinamide]	7	–	–	365	–
CC(C)(O)[C@H](F)CNC(=O)c1cnc(-c2ccc3cc(C#N)cnn23)cc1Nc1ccc(N2CCNCC2)nc1 [Example 213, (R)-6-(3-cyanopyrrolo[1,2-b]pyridazin-7-yl)-N-(2-fluoro-3-hydroxy-3-methylbutyl)-4-((6-(piperazin-1-yl)pyridin-3-yl)amino) nicotinamide]	< 1	–	–	51	–
CC1(O)CCC(Nc2cc(-c3ccc4cc(C#N)cnn34)ncc2C(=O)NC[C@@H](F)C(C)(C)O)CC1 (stereo partly drawn) [Example 154, 6-(3-cyanopyrrolo[1,2-b]pyridazin-7-yl)-N-((R)-2-fluoro-3-hydroxy-3-methylbutyl)-4-(((1s,4S)-4-hydroxy-4-methyl-cyclohexyl)amino)nicotinamide]	< 1	–	–	34	–
COC(=O)NCc1ccc(Nc2cc(-c3ccc4cc(C#N)cnn34)ncc2C(=O)NC[C@@H](F)C(C)(C)O)cc1 [Example 225, (R)-methyl (4-((2-(3-cyano-pyrrolo[1,2-b]pyridazin-7-yl)-5-((2-fluoro-3-hydroxy-3-methylbutyl)carbamoyl)pyridin-4-yl)amino)benzyl)carbamate]	< 1	–	–	6	–
CC(C)(O)[C@H](F)CNC(=O)c1cnc(-c2ccc3cc(C#N)cnn23)cc1Nc1cnn(C(F)F)c1 [Example 48, (R)-6-(3-cyanopyrrolo[1,2-b]pyridazin-7-yl)-4-((1-(difluoromethyl)-1H-pyrazol-4-yl)amino)-N-(2-fluoro-3-hydroxy-3-methylbutyl)nicotinamide]	< 1	–	–	28	–
Cc1nsc(Nc2cc(-c3ccc4cc(C#N)cnn34)ncc2C(=O)NC[C@@H](F)C(C)(C)O)n1 [Example 142, (R)-6-(3-cyanopyrrolo[1,2-b]pyridazin-7-yl)-N-(2-fluoro-3-hydroxy-3-methylbutyl)-4-((3-methyl-1,2,4-thiadiazol-5-yl)amino) nicotinamide]	4	–	–	169	–
N#CCNC(=O)c1cnc(-c2ccc3cc(C#N)cnn23)cc1NC12CCC(C(=O)NC3COC3)(CC1)CC2 [Example 454, N-(cyanomethyl)-6-(3-cyanopyrrolo[1,2-b]pyridazin-7-yl)-4-((4-(oxetan-3-ylcarbamoyl)bicyclo[2.2.2]octan-1-yl)amino)nicotinamide]	–	–	< 1	207	–
Cc1nnc(Nc2cc(-c3ccc4cc(C#N)cnn34)ncc2C(=O)NC[C@@H](F)C(C)(C)O)s1 [Example 146, (R)-6-(3-cyanopyrrolo[1,2-b]pyridazin-7-yl)-N-(2-fluoro-3-hydroxy-3-methylbutyl)-4-((5-methyl-1,3,4-thiadiazol-2-yl)amino)nicotinamide]	1	–	–	117	–
Cc1cc(Nc2cc(-c3ccc4cc(C#N)cnn34)ncc2C(=O)NC[C@@H](F)C(C)(C)O)ccc1C(N)=O [Example 581, (R)-4-((4-carbamoyl-3-methylphenyl)amino)-6-(3-cyanopyrrolo[1,2-b]pyridazin-7-yl)-N-(2-fluoro-3-hydroxy-3-methylbutyl)nicotinamide]	–	–	< 1	114	–
CC1(F)CC(Nc2cc(-c3ccc4cc(C#N)cnn34)ncc2C(=O)NC[C@@H](F)C(C)(C)O)C1 (stereo partly drawn) [Example 136, (R)-6-(3-cyanopyrrolo[1,2-b]pyridazin-7-yl)-N-(2-fluoro-3-hydroxy-3-methylbutyl)-4-((3-fluoro-3-methylcyclobutyl)amino) nicotinamide]	2	–	–	163	–
CC(C)Oc1cncc(Nc2cc(-c3ccc4cc(C#N)cnn34)ncc2C(=O)NC[C@@H](F)C(C)(C)O)c1 [Example 851, (R)-6-(3-cyanopyrrolo[1,2-b]pyridazin-7-yl)-N-(2-fluoro-3-hydroxy-3-methylbutyl)-4-((5-isopropoxypyridin-3-yl)amino)nicotinamide]	< 1	–	–	–	12
COc1ccc(Nc2cc(-c3ccc4cc(C#N)cnn34)ncc2C(=O)NC[C@@H](F)C(C)(C)O)nc1 [Example 667, (R)-6-(3-cyanopyrrolo[1,2-b]pyridazin-7-yl)-N-(2-fluoro-3-hydroxy-3-methylbutyl)-4-((5-methoxypyridin-2-yl)amino)nicotinamide]	–	–	< 1	45	–
CC(C)(O)[C@H](F)CNC(=O)c1cnc(-c2ccc3cc(C#N)cnn23)cc1NCc1c[nH]cn1 [Example 105, (R)-4-(((1H-imidazol-4-yl)methyl)amino)-6-(3-cyanopyrrolo[1,2-b]pyridazin-7-yl)-N-(2-fluoro-3-hydroxy-3-methylbutyl)nicotinamide]	9	–	–	3160	–
CN1CC(C(=O)NC[C@H]2C[C@H](Nc3cc(-c4ccc5cc(C#N)cnn45)ncc3C(=O)NC[C@@H](F)C(C)(C)O)C2)C1 [Example 795, 6-(3-cyanopyrrolo[1,2-b]pyridazin-7-yl)-N-((R)-2-fluoro-3-hydroxy-3-methylbutyl)-4-(((1r,3R)-3-((1-methylazetidine-3-carboxamido)methyl)cyclobutyl)amino) nicotinamide]	–	–	7	> 10000	–
CC(C)(O)[C@H](F)CNC(=O)c1cnc(-c2ccc3cc(C#N)cnn23)cc1Nc1ccc(C(F)F)nc1 [Example 227, (R)-6-(3-cyanopyrrolo[1,2-b]pyridazin-7-yl)-4-((6-(difluoromethyl)pyridin-3-yl)amino)-N-(2-fluoro-3-hydroxy-3-methylbutyl)nicotinamide]	< 1	–	–	31	–
CC(C)(O)CCNc1cc(-c2ccc3cc(C#N)cnn23)ncc1C(=O)NC[C@@H](F)C(C)(C)O [Example 80, (R)-6-(3-cyanopyrrolo[1,2-b]pyridazin-7-yl)-N-(2-fluoro-3-hydroxy-3-methylbutyl)-4-((3-hydroxy-3-methylbutyl)amino) nicotinamide]	< 1	–	–	88	–
